Data on 28 compounds can be found in patent publication US10988459B2 (priority 2015, dated 2021).

For this assay, the target named is human RIP1 kinase domain (2-375) (Homo sapiens (Human), UniProt Q13546). Description: biochemical. The assay is classed as biochemical. To be noted: 50 uM ATP. The method in brief:
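Ki^app comes from Morrison tight-binding fits of fractional activity versus compound concentration. Activity was read as ADP production, via tracer displacement lowering fluorescence polarization (633 nm laser). Conditions: 2 h, 50 nM insect-cell-expressed enzyme, 50 uM ATP, 30 mM MgCl2, 1 mM DTT, 0.5% DMSO, pH 7.5 Hepes.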

The mark [1] stands for this setting: human RIP1 kinase domain (2-375), 2 hours incubation, Transcreener ADP assay, read-out: RIP1 Ki.
The mark [2] stands for this setting: tight-binding apparent inhibition constant, human RIP1 kinase domain (2-375) 50 nM, 2 hours, read-out: Ki.
The mark [3] stands for this setting: Table 5, apparent Ki (Morrison tight-binding fit), 50 nM RIP1 kinase domain, 2 hours incubation, read-out: Ki.
Setting [4] is: human RIP1 kinase domain (2-375), Transcreener ADP assay, 2 hours incubation, read-out: RIP1 Ki.

Read-outs that look alike come from different tables or passages of the source.

human RIP1 kinase domain (2-375), sequence (Q13546 2-375): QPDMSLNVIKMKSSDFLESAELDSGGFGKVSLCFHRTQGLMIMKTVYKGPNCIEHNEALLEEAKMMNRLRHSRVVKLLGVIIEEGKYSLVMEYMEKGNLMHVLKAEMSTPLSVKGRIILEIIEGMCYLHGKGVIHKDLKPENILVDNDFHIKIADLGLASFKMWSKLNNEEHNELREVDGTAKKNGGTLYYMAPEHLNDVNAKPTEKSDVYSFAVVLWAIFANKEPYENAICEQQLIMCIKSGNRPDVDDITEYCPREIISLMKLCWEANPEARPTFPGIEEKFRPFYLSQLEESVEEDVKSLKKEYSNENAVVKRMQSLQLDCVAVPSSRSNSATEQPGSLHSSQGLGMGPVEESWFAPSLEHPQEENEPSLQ

In the case of `CN1C(=O)C(NC(=O)c2nnc(Cc3ccccc3)[nH]2)CCn2nc3ccccc3c21` (stereo not shown) [Example 108, 5-benzyl-N-(1-methyl-2-oxo-2,3,4,5-tetrahydro-1-[1,3]diazepino[1,2-b]indazol-3-yl)-4H-1,2,4-triazole-3-carboxamide], under setting [1], the Ki was determined as 133 nM.

On to `Cc1cc2n(n1)CC[C@H](NC(=O)c1ncn(CC3CCOC3)n1)C(=O)N2C` (stereo partly drawn) [Example 479, N-(6S)-2,4-dimethyl-5-oxo-7,8-dihydro-6H-pyrazolo[1,5-a][1,3]diazepin-6-yl-1-(tetrahydrofuran-3-ylmethyl)-1,2,4-triazole-3-carboxamide], for which the Ki under setting [2] amounted to 2800 nM.

For the compound `C[C@H](c1ccc(F)cc1)n1cnc(C(=O)N[C@H]2CCn3nc(C4CC4)cc3N(C)C2=O)n1` (racemic) [Example 676, N-[rac-(6S)-2-cyclopropyl-4-methyl-5-oxo-7,8-dihydro-6H-pyrazolo[1,5-a][1,3]diazepin-6-yl]-1-[rac-(1R)-1-(4-fluorophenypethyl]-1,2,4-triazole-3-carboxamide], the Ki under setting [2] turned out to be 3100 nM. Take `CN1C(=O)[C@@H](NC(=O)c2ncc3c(n2)C2(CCC2)OC3)COc2ccccc21` [Example 616, N-[(3S)-5-methyl-4-oxo-2,3-dihydro-1,5-benzoxazepin-3-yl]spiro[5H-furo[3,4-d]pyrimidine-7,1′-cyclobutan]-2-carboxamide]: the Ki under setting [2] came to 5.7 nM.

Consider `CCOC(=O)[C@@H]1[C@@H]2CC[C@H](NC(=O)c3ncn(Cc4ccccc4)n3)C(=O)N(C)[C@@H]21` (single isomer, unassigned) [Example 131], for which the Ki under setting [1] turned out to be 1300 nM. `Cc1cc2n(n1)CC[C@H](NC(=O)c1ncn(C[C@H]3C[C@H](C)C3)n1)C(=O)N2C` [Example 498, N—((S)-2,4-dimethyl-5-oxo-5,6,7,8-tetrahydro-4H-pyrazolo[1,5-a][1,3]diazepin-6-yl)-1-(((1S,3R)-3-methylcyclobutyl)methyl)-1H-1,2,4-triazole-3-carboxamide]: under setting [2], the Ki is 400 nM. Turning to `CN1C(=O)[C@@H](NC(=O)c2nc3n(n2)C(c2cnn(C)c2)CCC3)CCn2nccc21` (stereo partly drawn) [Example 397, 5-(1-methyl-1H-pyrazol-4-yl)-N—((S)-4-methyl-5-oxo-5,6,7,8-tetrahydro-4H-pyrazolo[1,5-a][1,3]diazepin-6-yl)-5,6,7,8-tetrahydro-[1,2,4]triazolo[1,5-a]pyridine-2-carboxamide], under setting [2], the Ki was 709 nM. For the compound `CN1C(=O)[C@@H](NC(=O)c2ncn(Cc3ccccc3)n2)CCn2nc(CCN3CCOCC3)cc21` [Example 752, 1-benzyl-N-[(6S)-4-methyl-2-(2-morpholinoethyl)-5-oxo-7,8-dihydro-6H-pyrazolo[1,5-a][1,3]diazepin-6-yl]-1,2,4-triazole-3-carboxamide], the Ki under setting [3] is 116 nM.

As to `CC(C)[C@H]1CCCc2nc(C(=O)N[C@H]3CCc4cc(F)cc(F)c4NC3=O)nn21` (single isomer, unassigned) [Example 434], the Ki under setting [2] amounted to 174 nM.

Take `CN1C(=O)C(NC(=O)c2ncn(CC3CCCC3)n2)CCn2nc(C3CC3)cc21` (stereo not shown) [Example 261, 1-(cyclopentylmethyl)-N-(2-cyclopropyl-4-methyl-5-oxo-5,6,7,8-tetrahydro-4H-pyrazolo[1,5-a][1,3]diazepin-6-yl)-1H-1,2,4-triazole-3-carboxamide]: the Ki under setting [4] was determined as 104 nM. Take `Cc1cnn2c1N(C)C(=O)C(NC(=O)c1ncn(Cc3ccccc3)n1)CC2` (stereo not shown) [Example 107, 1-benzyl-N-(3,4-dimethyl-5-oxo-5,6,7,8-tetrahydro-4H-pyrazolo[1,5-a][1,3]diazepin-6-yl)-1H-1,2,4-triazole-3-carboxamide]: the Ki under setting [1] was 69.7 nM. As for `Cc1cc2n(n1)CC[C@H](NC(=O)c1nc3n(n1)CCN3c1c(F)cccc1F)C(=O)N2C` [Example 649, 4-(2,6-difluorophenyl)-N-[(6S)-2,4-dimethyl-5-oxo-7,8-dihydro-6H-pyrazolo[1,5-a][1,3]diazepin-6-yl]-5,6-dihydroimidazo[1,2-b][1,2,4]triazole-2-carboxamide], the Ki under setting [2] stood at 140 nM.

Turning to `CN1C(=O)C(NC(=O)c2ncn(Cc3ccccc3)n2)CCn2nc(Cn3cccn3)cc21` (racemic) [Example 705, 1-benzyl-N-[4-methyl-5-oxo-2-(pyrazol-1-ylmethyl)-7,8-dihydro-6H-pyrazolo[1,5-a][1,3]diazepin-6-yl]-1,2,4-triazole-3-carboxamide], the Ki under setting [3] turned out to be 114 nM. As to `CC(=O)c1cc2n(n1)CC[C@H](NC(=O)c1ncn(Cc3ccccc3)n1)C(=O)N2C` [Example 366, (S)—N-(2-acetyl-4-methyl-5-oxo-5,6,7,8-tetrahydro-4H-pyrazolo[1,5-a][1,3]diazepin-6-yl)-1-benzyl-1H-1,2,4-triazole-3-carboxamide], under setting [2], the Ki turned out to be 17.3 nM. Same read-out and setting: the result for `Cc1cc2n(n1)CC[C@H](NC(=O)c1ncn(C[C@H]3C[C@@H](C(F)(F)F)C3)n1)C(=O)N2C` [Example 492] reads 180 nM; that for `Cc1cc2n(n1)CC[C@H](NC(=O)c1ncn(Cc3cccc(Cl)c3Cl)n1)C(=O)N2C` [Example 472, 1-[(2,3-dichlorophenyl)methyl]-N-(6S)-2,4-dimethyl-5-oxo-7,8-dihydro-6H-pyrazolo[1,5-a][1,3]diazepin-6-yl-1,2,4-triazole-3-carboxamide], 5.1 nM. `Cc1cc2n(n1)CC[C@H](NC(=O)c1ncn(Cc3ccc(F)cc3)n1)C(=O)N2C` [Example 164, (S)-N-(2,4-dimethyl-5-oxo-5,6,7,8-tetrahydro-4H-pyrazolo[1,5-a][1,3]diazepin-6-yl)-1-(4-fluorobenzyl)-1H-1,2,4-triazole-3-carboxamide]: the Ki under setting [1] is 24.5 nM. As to `Cc1cc2n(n1)CC[C@H](NC(=O)c1ncn(C[C@H]3C[C@@H](C)C3)n1)C(=O)N2C` [Example 499, N—((S)-2,4-dimethyl-5-oxo-5,6,7,8-tetrahydro-4H-pyrazolo[1,5-a][1,3]diazepin-6-yl)-1-(((1R,3S)-3-methylcyclobutyl)methyl)-1H-1,2,4-triazole-3-carboxamide], under setting [2], the Ki was found to be 870 nM.

As for `CN1C(=O)C(NC(=O)c2ncn(Cc3ccccc3)n2)CCn2nc(C(C)(C)O)cc21` (racemic) [Example 372, 1-benzyl-N-[2-(1-hydroxy-1-methyl-ethyl)-4-methyl-5-oxo-7,8-dihydro-6H-pyrazolo[1,5-a][1,3]diazepin-6-yl]-1,2,4-triazole-3-carboxamide], the Ki under setting [2] stood at 488 nM. `Cc1cc2n(n1)CC[C@H](NC(=O)c1ncc3c(n1)C1(CCCC1)OC3)C(=O)N2C` [Example 552, N-[(6S)-2,4-dimethyl-5-oxo-7,8-dihydro-6H-pyrazolo[1,5-a][1,3]diazepin-6-yl]spiro[5H-furo[3,4-d]pyrimidine-7,1′-cyclopentane]-2-carboxamide]: the Ki under setting [2] was 110 nM. In the case of `CN1C(=O)[C@@H](NC(=O)c2ncn(Cc3ccccc3)n2)CCn2nc(CCCN3CCC(F)(F)C3)cc21` [Example 739, 1-benzyl-N-[(6S)-2-[3-(3,3-difluoropyrrolidin-1-yl)propyl]-4-methyl-5-oxo-7,8-dihydro-6H-pyrazolo[1,5-a][1,3]diazepin-6-yl]-1,2,4-triazole-3-carboxamide], the Ki under setting [3] came out at 36 nM. For `CN1C(=O)[C@@H](NC(=O)c2ncn(Cc3ccccc3)n2)CCn2nc(C[C@H]3CC3(F)F)cc21` [Example 547, 1-benzyl-N-(6S)-4-methyl-5-oxo-2-[(1 S)-2,2-difluorocyclopropylmethyl]-7,8-dihydro-6H-pyrazolo[1,5-a][1,3]diazepin-6-yl-1,2,4-triazole-3-carboxamide], the Ki under setting [2] was determined as 8.5 nM.

Turning to `CN1C(=O)[C@@H](NC(=O)c2nnn3c2CC2(CCCC2)C3)CCn2nccc21` [Example 120, (S)—N-(4-methyl-5-oxo-5,6,7,8-tetrahydro-4H-pyrazolo[1,5-a][1,3]diazepin-6-yl)-4′H,6′H-spiro[cyclopentane-1,5′-pyrrolo[1,2-c][1,2,3]triazole]-3′-carboxamide], the Ki under setting [1] amounted to 2100 nM.

`CN1C(=O)C(NC(=O)c2ncn(Cc3ccccc3)n2)CCCn2cncc21` (stereo not shown) [Example 103, 1-benzyl-N-(1-methyl-2-oxo-1,2,3,4,5,6-hexahydroimidazo[1,5-a][1,3]diazocin-3-yl)-1H-1,2,4-triazole-3-carboxamide]: the Ki under setting [1] turned out to be 124 nM. Take `CN1C(=O)C(NC(=O)c2ncn(Cc3ccccc3)n2)CCn2nc(-c3ccccc3)cc21` (stereo not shown) [Example 208, 1-benzyl-N-(4-methyl-5-oxo-2-phenyl-5,6,7,8-tetrahydro-4H-pyrazolo[1,5-a][1,3]diazepin-6-yl)-1H-1,2,4-triazole-3-carboxamide]: under setting [1], the Ki was 120 nM.

As to `CN1C(=O)[C@@H](NC(=O)c2ncn(Cc3cc(F)ccc3F)n2)CCn2nc(C3CC3)cc21` [Example 304, (S)—N-(2-cyclopropyl-4-methyl-5-oxo-5,6,7,8-tetrahydro-4H-pyrazolo[1,5-a][1,3]diazepin-6-yl)-1-(2,5-difluorobenzyl)-1H-1,2,4-triazole-3-carboxamide], the Ki under setting [4] stood at 10.3 nM. In the case of `CN1C(=O)[C@@H](NC(=O)c2ncn(Cc3cccc(F)c3F)n2)CCn2nc([C@@H]3CC3(F)F)cc21` [Example 320, 1-(2,3-difluorobenzyl)-N—((S)-2-((S)-2,2-difluorocyclopropyl)-4-methyl-5-oxo-5,6,7,8-tetrahydro-4H-pyrazolo[1,5-a][1,3]diazepin-6-yl)-1H-1,2,4-triazole-3-carboxamide], the Ki under setting [4] was 16.4 nM. Turning to `CN1C(=O)[C@@H](NC(=O)c2n[nH]c3c2CC2(CC3)CC2)COc2ccccc21` [Example 174, (S)—N-(5-methyl-4-oxo-2,3,4,5-tetrahydrobenzo[b][1,4]oxazepin-3-yl)-1′,4′,6′,7′-tetrahydrospiro[cyclopropane-1,5′-indazole]-3′-carboxamide], the Ki under setting [1] was found to be 166 nM.
